Measured values published in patent publication US20130316990A1, “USE OF VITAMIN D COMPOUNDS” (DSM IP ASSETS B.V., priority 2003, published 2013).
Marks after values point to notes of the source that are not given here.

What was measured:
growing-fattening pigs = assay: Bone strength (Newton at the breaking point) in growing-fattening pigs fed supplemented diet, Example 1; type: in vivo; details: for Strength - metacarpals and metatarsals, relative to group A (100) / Strength - metacarpals, relative to group A (100) / Strength - metatarsals, relative to group A (100): unmedicated basal diet = 100; for Strength - metacarpals / Strength - metatarsals: mean ± SD of 8 determinations; for Strength - metacarpals and metatarsals: mean ± SD of 16 determinations
Method: Growing-fattening pigs of an initial body weight of 64.8±5.03 kg were fed a diet based on maize, barley and soybean meal ad libitum for 34 days. Groups of 16 animals each were fed as follows:
A: basal diet (unmedicated),
B: basal diet+1,200 IU/kg vitamin D3
C: basal diet+30 μg/kg 25-hydroxy vitamin D3 (Hy.D® 1.25% Beadlet, Roche Vitamins AG, Basel, Switzerland)
D: basal diet+600 IU/kg vitamin D3+15 μg/kg 25-hydroxy vitamin D3 (Hy.D® 1.25% Beadlet, Roche Vitamins AG, Basel, Switzerland).
(§1) The effects of the addition of 25-hydroxy vitamin D3 and vitamin D3 to the diet were determined by measuring the strength (Newton at the breaking point) of the bones of the animals.

weaner piglets = assay: Bone strength (Newton at the breaking point) in weaner piglets fed supplemented diet, Example 2; type: in vivo; details: for Strength - femur: mean ± SD of 8 determinations
Method: Weaner piglets of an initial body weight of 8.4±1.2 kg were fed a diet based on maize, barley and soybean meal ad libitum for 33 days. Groups of 31 animals each were fed as follows:
A: basal diet+1,000 IU/kg vitamin D3
B: basal diet+2,000 IU/kg vitamin D3
C: basal diet +40 μg/kg 25-hydroxy vitamin D3 (Hy.D® 1.25% Beadlet, Roche Vitamins AG, Basel, Switzerland)
D: basal diet+1,000 IU/kg vitamin D3+20 μg/kg 25-hydroxy vitamin D3 (Hy. D® 1.25% Beadlet, Roche Vitamins AG, Basel, Switzerland).
as §1

[1] = group C: 30 μg/kg 25-hydroxy vitamin D3, 34 days
[2] = group C: basal diet+30 μg/kg 25-hydroxy vitamin D3, 34 days
[3] = group B: 1,200 IU/kg vitamin D3, 34 days
[4] = group B: basal diet+1,200 IU/kg vitamin D3, 34 days

Q: What does the source list for `C=C1CC[C@H](O)C/C1=C/C=C1\CCC[C@]2(C)[C@@H]([C@H](C)CCCC(C)(C)O)CC[C@@H]12` [25-hydroxy vitamin D3]?
A: strength of the bones of the growing-finishing pig (in words) (growing-fattening pigs; Example 1, addition to diet, 34 days): clearly improved; Strength - metacarpals and metatarsals, relative to group A (100) (growing-fattening pigs; [1]): (112); Strength - metacarpals, relative to group A (100) (growing-fattening pigs; [1]): (123); Strength - metatarsals, relative to group A (100) (growing-fattening pigs; [1]): (103); Strength - metacarpals (growing-fattening pigs; group C: basal diet+30 μg/kg 25-hydroxy vitamin D3 (Hy.D 1.25% Beadlet), 34 days): 520 ± 72^df Newton; Strength - metatarsals (growing-fattening pigs; [2]): 545 ± 105 Newton; Strength - metacarpals and metatarsals (growing-fattening pigs; [2]): 533 ± 88^ac Newton; Strength - femur, relative to group A (100) (weaner piglets; group C: 40 μg/kg 25-hydroxy vitamin D3, 33 days, 1,000 IU/kg vitamin D3 group = 100): (100); Strength - femur (weaner piglets; group C: basal diet+40 μg/kg 25-hydroxy vitamin D3 (Hy.D 1.25% Beadlet), 33 days): 803 ± 82^a Newton

Q: `C=C1CC[C@H](O)C/C1=C/C=C1\CCC[C@]2(C)[C@@H]([C@H](C)CCCC(C)C)CC[C@@H]12` [vitamin D3] was tested. Which “Strength - metacarpals and metatarsals, relative to group A (100)” value (growing-fattening pigs; [3]) did it give?
A: (107)

Q: And the “Strength - metacarpals, relative to group A (100)” value (growing-fattening pigs; [3])?
A: (109)

Q: And the “Strength - metatarsals, relative to group A (100)” value (growing-fattening pigs; [3])?
A: (105)

Q: What about the Strength - metacarpals (growing-fattening pigs; [4]) of the same molecule?
A: 463 ± 48^ce Newton

Q: What about the Strength - metatarsals (growing-fattening pigs; [4]) of the same molecule?
A: 553 ± 169 Newton

Q: What about the “Strength - metacarpals and metatarsals” value (growing-fattening pigs; [4]) of the same molecule?
A: 508 ± 113^ac Newton

Q: What about the “Strength - femur, relative to group A (100)” value (weaner piglets; group A: 1,000 IU/kg vitamin D3, 33 days, reference group = 100) of the same molecule?
A: (100)

Q: And the “Strength - femur, relative to group A (100)” value (weaner piglets; group B: 2,000 IU/kg vitamin D3, 33 days, 1,000 IU/kg vitamin D3 group = 100)?
A: (109)

Q: And the Strength - femur (weaner piglets; group B: basal diet+2,000 IU/kg vitamin D3, 33 days)?
A: 873 ± 123^ab Newton
